# In EPA's ToxRefDB 2:
# Key:
# rabbit [1] = details: Prenatal developmental toxicity study, new zealand white, Oral, Gavage/Intubation, dose end: 27 GD
# rat [2] = details: Reproduction/developmental toxicity screening test, sprague dawley, Dermal, Topical, dose end: 1 generation
# rabbit [3] = details: Subchronic dermal toxicity, new zealand white, Topical, dose end: 13 week, group: systemic, systemic / pathology gross / skin / scabbing + systemic / pathology microscopic / skin / inflammation + systemic / in life observation / …
# rat [4] = details: Subchronic oral toxicity in rodents, other, [Not Specified], dose end: 90 day, group: systemic
# dog [5] = details: Chronic toxicity, beagle, Oral, Feed, dose end: 24 month, group: systemic
# rat [6] = details: Combined chronic toxicity/carcinogenicity; fischer; Oral; Feed; dose end: 110 week; group: systemic; systemic / clinical chemistry / cholesterol / cholesterol + systemic / clinical chemistry / creatinine / creatinine + systemic / clinical …
# rat [7] = details: Multigenerational reproductive toxicity study, sprague dawley, Oral, Feed, dose end: 2 generation
# hamster [8] = details: Subchronic oral toxicity in rodents, golden syrian, Feed, dose end: 13 week, group: systemic
# hamster [9] = details: Carcinogenicity; golden syrian; Oral; Feed; dose end: 88 week; group: systemic; systemic / pathology microscopic / pancreas / hyperplasia + systemic / pathology microscopic / prostate / secretory fluid + systemic / …
# hamster [10] = details: Carcinogenicity, golden syrian, Oral, Feed, dose end: 91 week, group: systemic
# rabbit [11] = details: Prenatal developmental toxicity study, new zealand white, Oral, Gavage/Intubation, dose end: 19 GD
# rat [12] = details: Prenatal developmental toxicity study, other, Oral, Gavage/Intubation, dose end: 15 GD
# dog [13] = details: Chronic toxicity, beagle, Oral, Feed, dose end: 52 week, group: systemic
# mouse [14] = details: Carcinogenicity, cd1, Oral, Feed, dose end: 24 month, group: systemic
# rat [15] = details: Subchronic oral toxicity in rodents, sprague dawley, Feed, dose end: 90 day, group: systemic
# rat [16] = details: Combined chronic toxicity/carcinogenicity, sprague dawley, Oral, Feed, dose end: 24 month, group: systemic
# rat [17] = details: Subchronic oral toxicity in rodents, fischer, Gavage/Intubation, dose end: 14 week, group: systemic, systemic / in life observation / body weight / body weight + systemic / in life observation / body weight / body weight gain + systemic / …
# mouse [18] = details: Subchronic oral toxicity in rodents, b6c3f1, Gavage/Intubation, dose end: 14 week, group: systemic
# mouse [19] = details: Carcinogenicity; b6c3f1; Oral; Gavage/Intubation; dose end: 105 week; group: systemic; systemic / in life observation / body weight / body weight + systemic / pathology microscopic / liver / hematopoietic cell proliferation + …
# rat [20] = details: Carcinogenicity; fischer; Oral; Gavage/Intubation; dose end: 105 week; group: systemic; systemic / in life observation / body weight / body weight + systemic / pathology gross / liver / discolored + systemic / pathology gross / …
# [21] = group: developmental, systemic / in life observation / body weight / fetal weight
# [22] = group: maternal, systemic / in life observation / body weight / body weight gain + systemic / in life observation / food consumption / food consumption + …
# [23] = group: offspring, systemic / in life observation / body weight / offspring (pup) weight
# [24] = group: offspring, systemic / in life observation / body weight / offspring (pup) weight + systemic / in life observation / clinical signs / desquamation + …
# [25] = group: parental, systemic / in life observation / body weight / body weight + systemic / in life observation / body weight / body weight gain + systemic / in…
# [26] = group: parental, systemic / in life observation / clinical signs / desquamation + systemic / in life observation / clinical signs / erythema + systemic / …
# [27] = systemic / organ weight / liver / nos
# [28] = systemic / organ weight / liver / nos + systemic / hematology / leukocyte (wbc) count differential / leukocyte (wbc) + systemic / hematology…
# [29] = systemic / clinical chemistry / [other] / [other] + systemic / clinical chemistry / alanine aminotransferase (alt/sgpt) / alanine …
# [30] = group: reproductive, reproductive / reproductive performance / implantations / implantations
# [31] = systemic / clinical chemistry / lipids / phospholipids + systemic / organ weight / liver / nos + systemic / organ weight / prostate / nos + …
# [32] = systemic / clinical chemistry / lipids / phospholipids + systemic / organ weight / liver / nos + systemic / pathology microscopic / …
# [33] = systemic / in life observation / body weight / body weight gain
# [34] = systemic / in life observation / body weight / body weight gain + systemic / organ weight / heart / nos
# [35] = group: developmental, developmental / developmental malformation / aortic arch / dilated + developmental / developmental malformation / aortic arch / narrowed + …
# [36] = group: maternal, reproductive / reproductive performance / postimplantation loss / postimplantation loss + reproductive / reproductive performance / …
# [37] = group: developmental, developmental / developmental malformation / bone / unossified
# [38] = group: maternal, systemic / in life observation / body weight / body weight + systemic / in life observation / body weight / body weight gain + systemic / …
# [39] = systemic / pathology microscopic / prostate / hyperplasia
# [40] = systemic / pathology microscopic / liver / cytomegaly
# [41] = systemic / pathology microscopic / liver / cytomegaly + systemic / pathology microscopic / lung / adenoma + systemic / in life observation…
# [42] = systemic / clinical chemistry / calcium / calcium + systemic / organ weight / heart / relative to body weight
# [43] = systemic / in life observation / body weight / body weight + systemic / in life observation / body weight / body weight gain
# [44] = systemic / in life observation / body weight / body weight gain + systemic / organ weight / liver / absolute + systemic / organ weight / …
# [45] = systemic / organ weight / epididymis / nos + systemic / organ weight / testes / nos
compound,measurement,setting,value
ClC=CC[N+]12CN3CN(CN(C3)C1)C2.[Cl-] [N-(3-Chloroallyl)hexaminium chloride],LEL,rabbit [1]; [21],16 mg/kg/day
same,LOAEL,rabbit [1]; [21],16 mg/kg/day
same,NEL,rabbit [1]; [21],5.1 mg/kg/day
same,NOAEL,rabbit [1]; [21],5.1 mg/kg/day
same,LEL,rabbit [1]; [22],16 mg/kg/day
same,LOAEL,rabbit [1]; [22],16 mg/kg/day
same,NEL,rabbit [1]; [22],5.1 mg/kg/day
same,NOAEL,rabbit [1]; [22],5.1 mg/kg/day
same,NEL,rat [2]; [23],75 mg/kg/day
same,LEL,rat [2]; [24],225 mg/kg/day
same,LOAEL,rat [2]; [24],> 750 mg/kg/day
same,NOAEL,rat [2]; [24],≥ 750 mg/kg/day
same,LOAEL,rat [2]; [25],> 750 mg/kg/day
same,NOAEL,rat [2]; [25],≥ 750 mg/kg/day
same,LEL,rat [2]; [26],75 mg/kg/day
same,NEL,rat [2]; [26],< 75 mg/kg/day
same,LEL,rabbit [3],50 mg/kg/day
same,LOAEL,rabbit [3],> 1000 mg/kg/day
same,NEL,rabbit [3],< 50 mg/kg/day
same,NOAEL,rabbit [3],≥ 1000 mg/kg/day
N#Cc1c(Cl)cccc1Cl [Dichlobenil],LEL,rat [4]; [27],50 mg/kg/day
same,LOAEL,rat [4]; [27],50 mg/kg/day
same,NEL,rat [4]; [28],5 mg/kg/day
same,NOAEL,rat [4]; [28],5 mg/kg/day
same,LOAEL,dog [5]; [29],8.75 mg/kg/day
same,NEL,dog [5]; [29],0.5 mg/kg/day
same,NOAEL,dog [5]; [29],1.25 mg/kg/day
same,LEL,dog [5]; systemic / urinalysis / occult blood / blood,1.25 mg/kg/day
same,LEL,rat [6],17.3 mg/kg/day
same,LOAEL,rat [6],17.3 mg/kg/day
same,NEL,rat [6],2.1 mg/kg/day
same,NOAEL,rat [6],2.1 mg/kg/day
same,LEL,rat [7]; [23],15 mg/kg/day
same,LOAEL,rat [7]; [23],15 mg/kg/day
same,NEL,rat [7]; [23],3 mg/kg/day
same,NOAEL,rat [7]; [23],3 mg/kg/day
same,LEL,rat [7]; [25],100 mg/kg/day
same,LOAEL,rat [7]; [25],100 mg/kg/day
same,NEL,rat [7]; [25],15 mg/kg/day
same,NOAEL,rat [7]; [25],15 mg/kg/day
same,LEL,rat [7]; [30],100 mg/kg/day
same,LOAEL,rat [7]; [30],> 100 mg/kg/day
same,NEL,rat [7]; [30],15 mg/kg/day
same,NOAEL,rat [7]; [30],≥ 100 mg/kg/day
same,LEL,hamster [8]; [31],18.8 mg/kg/day
same,LOAEL,hamster [8]; [31],18.8 mg/kg/day
same,NEL,hamster [8]; [32],3.75 mg/kg/day
same,NOAEL,hamster [8]; [32],3.75 mg/kg/day
same,LEL,hamster [9],45.6 mg/kg/day
same,LOAEL,hamster [9],45.6 mg/kg/day
same,NEL,hamster [9],9.39 mg/kg/day
same,NOAEL,hamster [9],9.39 mg/kg/day
same,LOAEL,hamster [10]; [33],51 mg/kg/day
same,NOAEL,hamster [10]; [33],< 51 mg/kg/day
same,LEL,hamster [10]; [34],51 mg/kg/day
same,NEL,hamster [10]; [34],< 51 mg/kg/day
same,LEL,rabbit [11]; [35],135 mg/kg/day
same,LOAEL,rabbit [11]; [35],135 mg/kg/day
same,NEL,rabbit [11]; [35],45 mg/kg/day
same,NOAEL,rabbit [11]; [35],45 mg/kg/day
same,LEL,rabbit [11]; [36],135 mg/kg/day
same,LOAEL,rabbit [11]; [36],135 mg/kg/day
same,NEL,rabbit [11]; [36],45 mg/kg/day
same,NOAEL,rabbit [11]; [36],45 mg/kg/day
COc1nc(C)nc(NC(=O)NS(=O)(=O)c2ccccc2OCCCl)n1 [Triasulfuron],LEL,rat [12]; [37],100 mg/kg/day
same,LOAEL,rat [12]; [37],900 mg/kg/day
same,NEL,rat [12]; [37],< 100 mg/kg/day
same,NOAEL,"rat [12]; group: developmental, developmental / developmental malformation / bone / unossified + systemic / in life observation / body weight / fetal weight",300 mg/kg/day
same,LOAEL,"rat [12]; group: maternal, systemic / in life observation / body weight / body weight + systemic / in life observation / body weight / body weight gain",300 mg/kg/day
same,LEL,"rat [12]; group: maternal, systemic / in life observation / body weight / body weight + systemic / in life observation / body weight / body weight gain + systemic / in…",300 mg/kg/day
same,NEL,rat [12]; [38],100 mg/kg/day
same,NOAEL,rat [12]; [38],100 mg/kg/day
same,LEL,dog [13]; [39],2.5 mg/kg/day
same,LOAEL,dog [13]; [39],25 mg/kg/day
same,NEL,dog [13]; [39],< 2.5 mg/kg/day
same,NOAEL,dog [13]; systemic / pathology microscopic / prostate / hyperplasia + systemic / hematology / erythrocyte (rbc) count differential / erythrocyte (rbc…,2.5 mg/kg/day
same,LEL,mouse [14]; [40],129 mg/kg/day
same,LOAEL,mouse [14]; [40],129 mg/kg/day
same,NEL,mouse [14]; [41],1.2 mg/kg/day
same,NOAEL,mouse [14]; [41],1.2 mg/kg/day
same,LEL,rat [15]; [42],10 mg/kg/day
same,NEL,rat [15]; [42],< 10 mg/kg/day
same,LOAEL,rat [15]; systemic / in life observation / body weight / body weight + systemic / in life observation / food consumption / food consumption,500 mg/kg/day
same,NOAEL,rat [15]; systemic / in life observation / body weight / body weight + systemic / in life observation / food consumption / food consumption + systemic…,10 mg/kg/day
same,LOAEL,rat [16]; [43],221 mg/kg/day
same,NOAEL,rat [16]; [43],32.1 mg/kg/day
same,LEL,rat [16]; systemic / in life observation / clinical signs / palpable mass,42.9 mg/kg/day
same,NEL,rat [16]; systemic / in life observation / clinical signs / palpable mass + systemic / in life observation / body weight / body weight + systemic / in…,0.4 mg/kg/day
C=CCc1ccc(OC)c(OC)c1 [Methyleugenol],LEL,rat [17],10 mg/kg/day
same,LOAEL,rat [17],300 mg/kg/day
same,NEL,rat [17],< 10 mg/kg/day
same,NOAEL,rat [17],100 mg/kg/day
same,LOAEL,mouse [18]; [44],300 mg/kg/day
same,NOAEL,mouse [18]; [44],100 mg/kg/day
same,LEL,mouse [18]; [45],10 mg/kg/day
same,NEL,mouse [18]; [45],< 10 mg/kg/day
same,LEL,mouse [19],37 mg/kg/day
same,LOAEL,mouse [19],37 mg/kg/day
same,NEL,mouse [19],< 37 mg/kg/day
same,NOAEL,mouse [19],< 37 mg/kg/day
same,LEL,rat [20],37 mg/kg/day
same,LOAEL,rat [20],75 mg/kg/day
same,NEL,rat [20],< 37 mg/kg/day
same,NOAEL,rat [20],37 mg/kg/day
